One data set relates to HBV DNA. Put plainly: Antiviral activity: inhibition of HBV DNA in supernatant of HepG2.2.15 cells (dot blot hybridization). It is filed as cell-based, hepatitis B virus. The conditions noted are these: for IC50: Hepatitis B virus, HepG2.2.15 cells, 8 days (2 x 4 days) incubation, read-out: IC50 (Inhibitory effect on HBV DNA); for SI: selectivity index, TC50 against IC50, HepG2.2.15 cells. As to the method: The antiviral activity of the compounds according to the present invention was tested following the methods described by Sells et al. (M. A. Sells, M. L. Chen, g. Acs, Proc. Natl. Acad. Sci., 1987, 84, 1005-1009) and Korba et al., (B. E. Korba, J. L. Gerin, Antiviral Research, 1992, 19. 55-70).
(§1) The antiviral tests were carried out in 96-well microtitre plates. Only growth medium and HepG2.2.15 cells were added to the first vertical row of the plate, which row severed as a blank control.
(§2) Stock solutions of the test compounds (50 mM) were initially dissolved in DMSO, and further dilutions were prepared in the growth medium of HepG2.2.15. The compounds according to the present invention, usually in a test concentration of 100 μg/ml (1st test concentration), were in each case pipetted into the second vertical test row of the microtitre plate and subsequently diluted by a factor of 2 each time, up to 2^10-fold, using growth medium plus 2% of foetal calf serum (volume 25 μl).
(§3) 225 μl of a HepG2.2.15 cell suspension (5×10^4 cells/ml) in growth medium plus 2% foetal calf serum were then added to each well of the microtitre plate.
(§4) The test batch was incubated at 37° C., 5% CO2 for 4 days. The supernatant was subsequently siphoned off and discarded, and 225 μl of freshly prepared growth medium were added to the wells. Once more, the compounds according to the present invention were added, in a volume 25 μl. The batches were incubated fro another 4 days.
The supernatants were subsequently harvested and, by means of reduced pressure, siphoned onto 96-well dot blot chambers covered with a nylon membrane (in accordance with the specification provided by the manufacturer).
After transfer of the supernatants onto the nylon membrane of the blot apparatus (see above), the supernatants of the HepG2.2.15 cells were denatured (1.5 M NaCl/0.5 N NaOH), neutralized (3 M […]/0.5 M Tris HCl, pH 7.5) and washed (2×SSC). By incubation of the filters at 120° C. for 2-4 hours, the DNA was subsequently baked onto the membrane.
The viral DNA of the treated HEpG2.2.15 cells on the nylon filter membrane was usually detected using non-radioactive digoxygenin-labelled hepatitis B-specific DNA probes which were in each case in accordance with the specifications of the manufacturer labelled with digoxygenin, purified and used for hybridization.
Briefly speaking, the prehybridization and hybridization were carried out in 5×SSC, 1×blocking reagent, 0.1% N-lauroylsacosine, 0.02% SDS and 100 μg of DNA from herring sperm. The prehybridization was carried out at 60° C. for 30 minutes and the specific hybridization was carried out using 20 to 40 ng/ml of the digoxygenated denatured HBV-specific DNA (14 hours, 60° C.). The fillers were subsequently washed, and then determination of HBV DNA by digoxygenin antibodies was carried out.
The digoxygenin-labelled DNA was detected immunologically in accordance with the specifications of the manufacturer.
Briefly speaking, the fillers were washed and prehybridized in a blocking agent (in accordance with the specifications of the manufacturer). They were subsequently hybridized for 30 minutes using an anti-DIG antibody linked to alkaline phosphatase. After a washing step, the substrate of alkaline phosphatase, CSPD, was added, incubated with the filters for 5 minutes, subsequently wrapped in plastic film and incubated at 37° C. for a further 15 minutes. The chemiluminescene of the Hepatitis B-specific DNA signals was visualized by exposition of the filters on an X-ray film (incubation, depending on the signal strength: 10 minutes to 2 hours). The half-maximum inhibitory concentration (IC50) was determined.
The half-maximum inhibitory concentration (IC50) means the concentration at which the hepatitis B-specific band was reduced by 50% in comparison with an untreated sample by the compound according to the present invention.

Data set [1] in a line: Cytotoxicity in HepG2.2.15 cells (cell morphology, Reed & Muench). It is filed as cell-based. The conditions noted are these: human, pathological changes observed by microscope after 8 days, read-out: TC50. As to the method: as §1, §2, §3, §4
Before the supernatants were harvested for determining the antiviral effect, the HePG2.2.15 cells were examined under the light microscope or by biochemical detection methods (for example Alamar Blue staining or Trypan Blue staining) for cytotoxic changes.
Substances-induced cytotoxic or cytostatic changes in the HepG2.2.15 cells were determined as changes in the cell morphology, for example under a light microscope. Such substance-induced changes of the HepG2.2.15 cells in comparison with untreated cells was apparent, for example, as cell lysis, vacuolization changed cell morphology. The pathological changes were observed by microscope after 8 days as index, a complete destroy being indicated as 4, 75% as 3, 50% as 2, 25% as 1, and no pathological change as 0. The average pathological change degree and inhibited percentages at various concentration were calculated, and a half-maximum toxic concentration (TC50) and a maximum non-toxic concentration […] were determined according to Reed & Muench methods.
TC50 means the concentration at which 50% of the cells have a morphology which is […] to the corresponding cell control by the compounds according to the present invention.

Data set [2] in a line: Solubility of the hydrochloride solid in solvents. It is filed as physicochemical. On the procedure: 0.18 g of the target compound obtained in Example 5 was dissolved in 2 ml of anhydrous ethanol, a solution of hydrogen chloride in ethyl-ether was added dropwise to precipitate a solid, and filtered to give 0.19 g of an off-white powdered solid.

Here are results for four compounds from patent publication US8802669B2, “Dihydropyrimidine compounds and preparation methods, pharmaceutical compositions and uses thereof” (Institute of Pharmacology and Toxicology Academy of …, priority 2009, dated 2014).

`CCOC(=O)C1=C(CN2CCOCC2)NC(c2c(F)cc(F)cc2F)=NC1c1ccc(F)cc1Cl.Cl` (stereo not drawn) [Example 18, ethyl 2-(2,4,6-trifluorophenyl)-4-(2-chloro-4-fluorophenyl)-6-(morpholin-1-ylmethyl)-1,4-dihydropyrimidine-5-carboxylate hydrochloride]: in the data set on HBV DNA, the half-inhibitory concentration (IC50) worked out at 2.4 µM and the SI was 13.37. Besides, the CC50 at 8 days in data set [1] amounted to 31 µM. Further, the “solubility in dichloromethane, ethyl acetate, acetone, and the like” value in data set [2] (dichloromethane, ethyl acetate, acetone) was “insoluble”. The “solubility in methanol and ethanol” value in data set [2] (methanol and ethanol) is reported as “soluble slightly”. Moreover, the solubility in water entry in data set [2] (water) is “greatly soluble”.

As for `CCOC(=O)C1=C(CN(CCO)CCO)NC(c2c(F)cc(F)cc2F)=NC1c1ccc(F)cc1Cl` (stereo not drawn) [Example 15, ethyl 2-(2,4,6-trifluorophenyl)-4-(2-chloro-4-fluorophenyl)-6-diethanolaminomethyl-1,4-dihydropyrimidine-5-carboxylate], in the data set with HBV DNA, the IC50 turned out to be 6.7 µM and the SI was 8.11. In addition, in data set [1], the CC50 at 8 days turned out to be 54 µM.

For `CCOC(=O)C1=C(CN2CCN(CC)CC2)NC(c2c(F)cc(F)cc2F)=NC1c1ccc(F)cc1Cl` (stereo not drawn) [Example 8, ethyl 2-(2,4,6-trifluorophenyl)-4-(2-chloro-4-fluorophenyl)-6-(4-ethylpiperazin-1-ylmethyl)-1,4-dihydropyrimidine-5-carboxylate], in the data set on HBV DNA, the IC50 was 6.7 µM and the SI worked out at 6.16. For the same compound, the CC50 at 8 days in data set [1] worked out at 41 µM.

In the case of `CCOC(=O)C1=C(CN2CCOCC2)N=C(c2c(F)cc(F)cc2N2CCOCC2)NC1c1ccc(F)cc1Cl` (stereo not drawn) [Example 13, ethyl 2-[2,4-difluoro-6-(morpholin-1-yl)phenyl]-4-(2-chlor-4-fluorophenyl)-6-(morpholine-1-ylmethyl)-1,4-dihydropyrimidine-5-carboxylate], in the data set on HBV DNA, the IC50 stood at 4.4 µM and the SI stood at 12.72. For the same compound, in data set [1], the CC50 at 8 days was determined as 55 µM.
